*1 amine or outer side, *2 acyl side, *3 side chain or, on linkers, in order; H or OH if unused. Where a SMILES comes first, the peptide text is derived from it. Side-chain parts run from the residue outwards. [ ]: non-standard residue; d: D form. The star is where a group is joined. C20 diacid = O=C(O)CCCCCCCCCCCCCCCCCCC(=O)*; γGlu = O=C(O)[C@H](CCC(=O)[*:2])N[*:1]; X2 = CC(C)(C(=O)*)c1cccc(F)c1; X26 = O=C(C1(c2ccccc2)CCCC1)*; X23 = CC(C)(C(=O)*)c1ccncc1; X64 = CC(C)(C(=O)*)c1ccccn1; X1 = CC(C)(C(=O)*)c1cccnc1; AEEA = NCCOCCOCC(=O)O; Aib = CC(C)(N)C(=O)O; βAla = NCCC(=O)O
Assays:
Assay type in all cases: cell-based
GLP-1 receptor [1] = biological target: T1, GLP-1 receptor (Homo sapiens, UniProt P43220); assay: PathHunter β-arrestin assay, GLP-1 receptor; design: host or cells: PathHunter CHO-K1 GLP1R β-Arrestin Cell Line; conditions: β-arrestin-2 recruitment, PathHunter CHO-K1 GLP1R β-Arrestin Cell Line, 90 min at 37° C.; normalized to GLP-1; read-out: GLP-1R β Arrestin EC50
T1 sequence (P43220 24-463): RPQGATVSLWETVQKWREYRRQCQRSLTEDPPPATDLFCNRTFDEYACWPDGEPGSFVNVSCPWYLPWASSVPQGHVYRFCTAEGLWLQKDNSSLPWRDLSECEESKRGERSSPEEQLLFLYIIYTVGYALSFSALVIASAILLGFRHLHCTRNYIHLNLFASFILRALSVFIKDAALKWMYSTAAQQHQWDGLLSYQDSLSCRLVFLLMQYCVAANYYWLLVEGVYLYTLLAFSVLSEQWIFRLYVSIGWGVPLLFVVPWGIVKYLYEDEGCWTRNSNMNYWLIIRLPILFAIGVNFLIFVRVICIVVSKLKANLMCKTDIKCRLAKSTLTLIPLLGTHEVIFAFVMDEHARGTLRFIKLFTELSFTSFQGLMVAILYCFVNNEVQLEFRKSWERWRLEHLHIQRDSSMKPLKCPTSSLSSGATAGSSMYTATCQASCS

GIP receptor [2] = biological target: T2, GIP receptor (Homo sapiens, UniProt P48546); assay: HitHunter cAMP assay, GIP receptor; conditions: for EC50: CHO cells stably expressing GIP receptor, cAMP accumulation, 30 min, read-out: EC50 GIP-1R; for Emax: CHO cells, cAMP, normalized to maximum signal from GIP (high) and DMSO (low), read-out: Emax GIP-1R
T2 sequence (P48546 22-466): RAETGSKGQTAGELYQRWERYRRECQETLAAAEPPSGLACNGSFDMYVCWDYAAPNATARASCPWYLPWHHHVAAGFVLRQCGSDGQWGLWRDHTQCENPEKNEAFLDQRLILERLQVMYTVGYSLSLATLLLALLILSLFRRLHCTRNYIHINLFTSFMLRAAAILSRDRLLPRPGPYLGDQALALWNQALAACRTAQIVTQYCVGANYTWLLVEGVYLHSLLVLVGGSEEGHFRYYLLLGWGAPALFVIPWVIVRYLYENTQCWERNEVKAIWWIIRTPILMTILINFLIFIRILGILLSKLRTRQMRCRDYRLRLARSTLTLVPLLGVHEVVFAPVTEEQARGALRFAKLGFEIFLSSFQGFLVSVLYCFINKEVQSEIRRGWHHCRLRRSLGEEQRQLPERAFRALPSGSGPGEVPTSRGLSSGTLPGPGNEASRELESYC

GLP-1 receptor [3] = biological target: T1, GLP-1 receptor; assay: HitHunter cAMP assay, GLP-1 receptor; conditions: for EC50: CHO cells stably expressing human GLP-1 receptor, cAMP accumulation, 30 min, read-out: EC50 GLP-1R; for Emax: CHO cells, cAMP, normalized to maximum signal from GLP-1 (high) and DMSO (low), read-out: Emax GLP-1R
GIP receptor [4] = biological target: T2, GIP receptor; assay: PathHunter β-arrestin assay, GIP receptor; design: host or cells: PathHunter CHO-K1 GIPR β-Arrestin Cell Line; conditions: β-arrestin-2 recruitment, PathHunter CHO-K1 GIPR β-Arrestin Cell Line, 90 min at 37° C.; normalized to GIP; read-out: GIPR β Arrestin EC50

| SMILES | EC50 (GLP-1 receptor [1]) [µM] | EC50 (GIP receptor [2]) [µM] | Emax (GIP receptor [2]) [%] | EC50 (GLP-1 receptor [3]) [µM] | Emax (GLP-1 receptor [3]) [%] | EC50 (GIP receptor [4]) [µM] |
| --- | --- | --- | --- | --- | --- | --- |
| CC[C@H](C)[C@H](NC(=O)[C@H](CC(C)C)NC(=O)[C@H](Cc1c[nH]c2ccccc12)NC(=O)[C@H](CCC(N)=O)NC(=O)[C@@H](NC(=O)[C@H](Cc1ccccc1)NC(=O)[C@H](C)NC(=O)[C@H](CCCCNC(=O)COCCOCCNC(=O)COCCOCCNC(=O)CC[C@H](NC(=O)CCCCCCCCCCCCCCCCCCC(=O)O)C(=O)O)NC(=O)[C@H](CCC(N)=O)NC(=O)[C@H](C)NC(=O)[C@@H](NC(=O)[C@H](CCCCN)NC(=O)[C@H](CC(=O)O)NC(=O)[C@H](CC(C)C)NC(=O)C(C)(C)NC(=O)[C@@H](NC(=O)[C@H](CO)NC(=O)[C@H](Cc1ccc(O)cc1)NC(=O)[C@H](CC(=O)O)NC(=O)[C@H](CO)NC(=O)[C@@H](NC(=O)[C@H](Cc1ccccc1)NC(=O)[C@@H](NC(=O)CNC(=O)[C@H](CCC(=O)O)NC(=O)CCNC(=O)C1(c2ccccc2)CCCC1)[C@@H](C)O)[C@@H](C)O)[C@@H](C)CC)[C@@H](C)CC)C(C)C)C(=O)N[C@@H](C)C(=O)NCC(=O)NCC(=O)N1CCC[C@H]1C(=O)N[C@@H](CO)C(=O)N[C@@H](CO)C(=O)NCC(=O)N[C@@H](C)C(=O)N1CCC[C@H]1C(=O)N1CCC[C@H]1C(=O)N1CCC[C@H]1C(=O)N[C@@H](CO)C(N)=O [Compound 236] ({X26-βAla}-EGTFTSDYSI[Aib]LDKIAQK([AEEA-AEEA-γGlu-C20 diacid])AFVQWLIAGGPSSGAPPPS-NH2) | > 1 | 0.001 to 0.01 | 114 | 0.0001 to 0.001 | 127 | > 1 |
| CC[C@H](C)[C@H](NC(=O)[C@H](CC(C)C)NC(=O)[C@H](Cc1c[nH]c2ccccc12)NC(=O)[C@H](CCC(N)=O)NC(=O)[C@@H](NC(=O)[C@H](Cc1ccccc1)NC(=O)[C@H](C)NC(=O)[C@H](CCCCNC(=O)COCCOCCNC(=O)COCCOCCNC(=O)CC[C@H](NC(=O)CCCCCCCCCCCCCCCCCCC(=O)O)C(=O)O)NC(=O)[C@H](CCC(N)=O)NC(=O)[C@H](C)NC(=O)[C@@H](NC(=O)[C@H](CCCCN)NC(=O)[C@H](CC(=O)O)NC(=O)[C@H](CC(C)C)NC(=O)C(C)(C)NC(=O)[C@@H](NC(=O)[C@H](CO)NC(=O)[C@H](Cc1ccc(O)cc1)NC(=O)[C@H](CC(=O)O)NC(=O)[C@H](CO)NC(=O)[C@@H](NC(=O)[C@H](Cc1ccccc1)NC(=O)[C@@H](NC(=O)CNC(=O)[C@H](CCC(=O)O)NC(=O)CCNC(=O)C(C)(C)c1ccccn1)[C@@H](C)O)[C@@H](C)O)[C@@H](C)CC)[C@@H](C)CC)C(C)C)C(=O)N[C@@H](C)C(=O)NCC(=O)NCC(=O)N1CCC[C@H]1C(=O)N[C@@H](CO)C(=O)N[C@@H](CO)C(=O)NCC(=O)N[C@@H](C)C(=O)N1CCC[C@H]1C(=O)N1CCC[C@H]1C(=O)N1CCC[C@H]1C(=O)N[C@@H](CO)C(N)=O [Compound 237] ({X64-βAla}-EGTFTSDYSI[Aib]LDKIAQK([AEEA-AEEA-γGlu-C20 diacid])AFVQWLIAGGPSSGAPPPS-NH2) | > 1 | 0.001 to 0.01 | 91 | < 0.0001 | 93 | < 1 |
| CC[C@H](C)[C@H](NC(=O)[C@H](CC(C)C)NC(=O)[C@H](Cc1c[nH]c2ccccc12)NC(=O)[C@H](CCC(N)=O)NC(=O)[C@@H](NC(=O)[C@H](Cc1ccccc1)NC(=O)[C@H](C)NC(=O)[C@H](CCCCNC(=O)COCCOCCNC(=O)COCCOCCNC(=O)CC[C@H](NC(=O)CCCCCCCCCCCCCCCCCCC(=O)O)C(=O)O)NC(=O)[C@H](CCC(N)=O)NC(=O)[C@H](C)NC(=O)[C@@H](NC(=O)[C@H](CCCCN)NC(=O)[C@H](CC(=O)O)NC(=O)[C@H](CC(C)C)NC(=O)C(C)(C)NC(=O)[C@@H](NC(=O)[C@H](CO)NC(=O)[C@H](Cc1ccc(O)cc1)NC(=O)[C@H](CC(=O)O)NC(=O)[C@H](CO)NC(=O)[C@@H](NC(=O)[C@H](Cc1ccccc1)NC(=O)[C@@H](NC(=O)CNC(=O)[C@H](CCC(=O)O)NC(=O)CCNC(=O)C(C)(C)c1ccncc1)[C@@H](C)O)[C@@H](C)O)[C@@H](C)CC)[C@@H](C)CC)C(C)C)C(=O)N[C@@H](C)C(=O)NCC(=O)NCC(=O)N1CCC[C@H]1C(=O)N[C@@H](CO)C(=O)N[C@@H](CO)C(=O)NCC(=O)N[C@@H](C)C(=O)N1CCC[C@H]1C(=O)N1CCC[C@H]1C(=O)N1CCC[C@H]1C(=O)N[C@@H](CO)C(N)=O [Compound 238] ({X23-βAla}-EGTFTSDYSI[Aib]LDKIAQK([AEEA-AEEA-γGlu-C20 diacid])AFVQWLIAGGPSSGAPPPS-NH2) | > 1 | 0.01 to 0.1 | 100 | 0.0001 to 0.001 | 91 | > 1 |
| CC[C@H](C)[C@H](NC(=O)[C@H](CC(C)C)NC(=O)[C@H](Cc1c[nH]c2ccccc12)NC(=O)[C@H](CCC(N)=O)NC(=O)[C@@H](NC(=O)[C@H](Cc1ccccc1)NC(=O)[C@H](C)NC(=O)[C@H](CCCCNC(=O)COCCOCCNC(=O)COCCOCCNC(=O)CC[C@H](NC(=O)CCCCCCCCCCCCCCCCCCC(=O)O)C(=O)O)NC(=O)[C@H](CCC(N)=O)NC(=O)[C@H](C)NC(=O)[C@@H](NC(=O)[C@H](CCCCN)NC(=O)[C@H](CC(=O)O)NC(=O)[C@H](CC(C)C)NC(=O)C(C)(C)NC(=O)[C@@H](NC(=O)[C@H](CO)NC(=O)[C@H](Cc1ccc(O)cc1)NC(=O)[C@H](CC(=O)O)NC(=O)[C@H](CO)NC(=O)[C@@H](NC(=O)[C@H](Cc1ccccc1)NC(=O)[C@@H](NC(=O)CNC(=O)[C@H](CCC(=O)O)NC(=O)CCNC(=O)C(C)(C)c1cccnc1)[C@@H](C)O)[C@@H](C)O)[C@@H](C)CC)[C@@H](C)CC)C(C)C)C(=O)N[C@@H](C)C(=O)NCC(=O)NCC(=O)N1CCC[C@H]1C(=O)N[C@@H](CO)C(=O)N[C@@H](CO)C(=O)NCC(=O)N[C@@H](C)C(=O)N1CCC[C@H]1C(=O)N1CCC[C@H]1C(=O)N1CCC[C@H]1C(=O)N[C@@H](CO)C(N)=O [Compound 239] ({X1-βAla}-EGTFTSDYSI[Aib]LDKIAQK([AEEA-AEEA-γGlu-C20 diacid])AFVQWLIAGGPSSGAPPPS-NH2) | < 1 | 0.001 to 0.01 | 99 | < 0.0001 | 91 | > 1 |
| CC[C@H](C)[C@H](NC(=O)[C@H](CC(C)C)NC(=O)[C@H](Cc1c[nH]c2ccccc12)NC(=O)[C@H](CCC(N)=O)NC(=O)[C@@H](NC(=O)[C@H](Cc1ccccc1)NC(=O)[C@H](C)NC(=O)[C@H](CCCCNC(=O)COCCOCCNC(=O)COCCOCCNC(=O)CC[C@H](NC(=O)CCCCCCCCCCCCCCCCCCC(=O)O)C(=O)O)NC(=O)[C@H](CCC(N)=O)NC(=O)[C@H](C)NC(=O)[C@@H](NC(=O)[C@H](CCCCN)NC(=O)[C@H](CC(=O)O)NC(=O)[C@H](CC(C)C)NC(=O)C(C)(C)NC(=O)[C@@H](NC(=O)[C@H](CO)NC(=O)[C@H](Cc1ccc(O)cc1)NC(=O)[C@H](CC(=O)O)NC(=O)[C@H](CO)NC(=O)[C@@H](NC(=O)[C@H](Cc1ccccc1)NC(=O)[C@@H](NC(=O)CNC(=O)[C@H](CCC(=O)O)NC(=O)CCNC(=O)C(C)(C)c1cccc(F)c1)[C@@H](C)O)[C@@H](C)O)[C@@H](C)CC)[C@@H](C)CC)C(C)C)C(=O)N[C@@H](C)C(=O)NCC(=O)NCC(=O)N1CCC[C@H]1C(=O)N[C@@H](CO)C(=O)N[C@@H](CO)C(=O)NCC(=O)N[C@@H](C)C(=O)N1CCC[C@H]1C(=O)N1CCC[C@H]1C(=O)N1CCC[C@H]1C(=O)N[C@@H](CO)C(N)=O [Compound 240] ({X2-βAla}-EGTFTSDYSI[Aib]LDKIAQK([AEEA-AEEA-γGlu-C20 diacid])AFVQWLIAGGPSSGAPPPS-NH2) | < 1 | 0.001 to 0.01 | 95 | < 0.0001 | 93 | < 1 |
